In patent publication EP1448559B1, “5-(4-(2-(N-METHYL-N-(2-PYRIDYL)AMINO)ETHOXY)BENZYL)THIAZOLIDINE-2,4-DIONE BENZENESULFONATE; PROCESS FOR ITS PREPARATION; POLYMORPHS I, II AND III THEREOF; AND ITS USE AS PHARMACEUTICAL ACTIVE INGREDIENT” (SMITHKLINE BEECHAM PLC, priority 2001, dated 2003):

Test: Solubility in water (visual, confirmed by HPLC assay of a saturated solution)

Compound | solubility (water added in aliquots from 1 to 1000ml to approximately 100mg of drug substance, confirmed by HPLC assay of a saturated solution) | solubility (water)
CN(CCOc1ccc(CC2SC(=O)NC2=O)cc1)c1ccccn1 (centres unmarked) [Benzenesulfonate Form II, 5-[4-[2-(N-Methyl-N-(2-pyridyl)amino)ethoxy]benzyl]thiazolidine-2,4-dione benzenesulfonate Form II] | 1400 µg/mL | 
CN(CCOc1ccc(CC2SC(=O)NC2=O)cc1)c1ccccn1 (centres unmarked) [Benzenesulfonate propan-2-ol solvate, 5-[4-[2-(N-Methyl-N-(2-pyridyl)amino)ethoxy]benzyl]thiazolidine-2,4-dione benzenesulfonate propan-2-ol solvate] |  | 1600 µg/mL
